Results on twelve molecules are retold here after patent publication US5605929A, “Methods and compositions for inhibiting 5α-reductase activity” (priority 1995, dated 1997).

Assay [1] has as its system 5α-reductase. Description: Catechin gallates in rat liver microsomes or cells expressing type 1 or type 2 5α-reductase. The assay is classed as biochemical. The conditions noted are these: for inhibitory activity: vs catechin gallate.
The target in assay [2] is T1, microsomal 5α-reductase (Rattus norvegicus, UniProt P24008).
T1 construct: from the livers of adult Sprague-Dawley female rats; from tissue; host or cells: liver microsomes of adult female Sprague-Dawley rats
T1 sequence (P24008 1-259): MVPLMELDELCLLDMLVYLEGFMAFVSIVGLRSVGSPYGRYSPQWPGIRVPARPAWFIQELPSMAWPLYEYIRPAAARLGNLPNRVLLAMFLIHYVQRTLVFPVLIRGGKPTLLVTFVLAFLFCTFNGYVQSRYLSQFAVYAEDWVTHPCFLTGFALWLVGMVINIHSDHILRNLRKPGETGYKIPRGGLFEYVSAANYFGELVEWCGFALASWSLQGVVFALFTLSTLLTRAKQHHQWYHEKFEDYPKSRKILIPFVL
The assay is described as follows: Enzymatic assay of microsomal 5α-reductase (testosterone to 5α-DHT). The assay is classed as biochemical. The conditions noted are these: prostate or liver microsomes.
Method: Microsomes were prepared at 4° C. from a buffered 0.32M-sucrose homogenate of human liver and from the livers of adult Sprague-Dawley female rats by differential centrifugation as described previously (Liang et al., 1990), and were used in the assay of 5α-reductase activity. In some experiments, microsomes were solubilized with 0.1% polyoxyethylene ether W-1 as described previously (Liang et al., 1990), except for the substitution of polyoxyethylene ether W-1 for Lubrol-WX.

Assay [3] has as its system hamster flank organ. The assay is described as follows: Flank organ, castrated immature male hamsters, topical treatment. Format: in vivo, Syrian golden hamster. The conditions noted are these: for Pigmented macule Right (+T): T alone 49.6 ± 8.3; for Pigmented macule Left: Table 5, fatty acid 1 mg without T; for inhibition of T-induced growth of pigmented macule: hamster, in vivo. As to the method: One to two weeks after castration, the hair on the lower back of each animal was clipped with an electric hair clipper and then shaved weekly to expose the flank organs. The animals were divided into 5 animals/treatment group. A treatment solution (5 μl) was applied topically to the right flank organ once a day using a Pipetteman and a polypropylene disposable tip. Unless specified the left flank organ was not treated. The treatment solution contained either (a) ethanol alone (vehicle and control), (b) an androgen (T or 5α-DHT), (c) a fatty acid, or (d) a combination of an androgen and a fatty acid. The flank organ was wiped with an alcohol pad to remove residual compound before each treatment. […] The flank organs, both the treated and untreated sides, were evaluated with methods to be described below to determine the effect of these treatments of the growth of the pigmented macules and the sebaceous glands. The body weight of each animal was recorded before and after treatment.
The data are presented as mean ± standard deviation. […]

The target of assay [4] is T2, 5α-Reductase of Rat Liver Microsomes (Rattus norvegicus, UniProt P24008).
T2 sequence (P24008 1-259): T1 sequence (P24008 1-259)

Assay [5] has as its target T2, 5α-Reductase of Rat Liver Microsomes. The assay is described as follows: biochemical.
Assay [6] has the same target. The assay is described as follows: [3H]4-MA binding assay, rat liver microsomes (tea catechins). The following applies: concentrations up to 200 μM. As to the method: Microsomes were prepared as described previously (Liang and Liao, 1992) from the liver of adult Sprague-Dawley female rats or Rat-1A cells expressing a specific type of human 5α-reductase. Each study was carried out in duplicate or triplicate which were usually within 10% of each other. Several studies were preformed to assure that the results shown are representative. The data presented was based on the rate of reaction.
[^3 H]4-MA binding assay were described in detail previously (Liang and Liao, 1992; Liang et al., 1983). […] The reaction was started by the addition of 25 μl of microsomes (25 μg protein). After 30-60 min incubation at 0° C., the [^3 H]4-MA bound to microsomes was collected on a Whatman GF/F glass fiber, washed and radioactivity determined (Liang and Liao, 1992).

Setting [7] is: Table 5, T 0.5 μg + fatty acid 1 mg.
Where [8] appears, read: Table 5, T 0.5 μg + fatty acid 1 mg, 21 days.
Where [9] appears, read: read-out: % Inhibition of [^3 H]4-MA binding, Table 1, 40 μM.
Setting [10] is: read-out: % Inhibition of [^3 H]4-MA binding, Table 1, 200 μM.
The mark [11] stands for this setting: read-out: % Inhibition of [^3 H]4-MA binding, Table 2, 10 μM.
Where [12] appears, read: read-out: % Inhibition of [^3 H]4-MA binding, Table 2, 40 μM.
Where [13] appears, read: read-out: % Inhibition of [^3 H]4-MA binding, Table 2, 200 μM.
Where [14] appears, read: read-out: % Inhibition of [^3 H]4-MA binding.

Read-outs that look alike come from different tables or passages of the source.

As to `NC(=O)c1cc(O)c(O)c(O)c1` [3,4,5-trihydroxybenzamide], the “inhibitory activity” value in assay [1] is on record as “not as active as catechin gallate”.
Take `Oc1cc(O)c2c(c1)OC(c1ccc(O)c(O)c1)C(O)C2` (stereo not shown) [Catechin]: in assay [1] (40 μM), the inhibition result is “less than 25%”.
For the molecule `CCCCCCCC/C=C/CCCCCCCC(=O)O` [Elaidic acid], the “inhibition in the enzymatic assay” value in assay [2] was “as potent as their cis isomers”. For the same molecule, the “p (significance of inhibition)” value in assay [3] (setting [7]) is reported as “N.S”. Moreover, the “Pigmented macule Right (+T)” value in assay [3] (setting [8]) was 47.0 ± 5.9 mm^2. Further, the “Pigmented macule Left” value in assay [3] (21 days) turned out to be 4.9 ± 1.1 mm^2. Also, in assay [3], the “inhibition of T-induced growth of pigmented macule” value (from here on “inhibition … of pigmented macule”) is “inactive”. In addition, the “inhibitory activity in [^3 H]4-MA binding assay” value in assay [4] was “much less inhibitory than their cis isomers”. Further, the inhibition at 10 µM in assay [5] (read-out: % Inhibition of [^3 H]4-MA binding, Table 1, 10 μM) is < 10%; in assay [5] (setting [11]) it was < 10%. Moreover, the inhibition at 40 µM in assay [5] (setting [9]) and in assay [5] (setting [12]) was < 10% throughout. Moreover, the inhibition at 200 µM in assay [5] (setting [10]) and in assay [5] (setting [13]) was < 10% throughout.
As to `CCCCCCCC/C=C\CCCCCCCCCCCC(=O)O` [Erucic acid], in assay [3] (setting [8]), the “Percent Inhibition” value worked out at 29%. The “Pigmented macule Right (+T)” value in assay [3] (setting [8]) worked out at 35.4 ± 4.6 mm^2. Further, the “Pigmented macule Left” value in assay [3] (21 days) was 4.6 ± 1.5 mm^2. For the same molecule, the “inhibition … of pigmented macule” value in assay [3] is reported as “Weak inhibitions”. Moreover, the “inhibitory activity in [^3 H]4-MA binding assay” value in assay [4] is “inactive”. For the same molecule, in assay [5], the half-maximal inhibitory concentration (IC50) was > 200 µM. Moreover, the inhibition at 40 µM in assay [5] (setting [9]) and in assay [5] (setting [12]) was < 10% throughout. Also, the inhibition at 200 µM in assay [5] (setting [10]) and in assay [5] (setting [13]) was < 10% throughout. Besides, the inhibition at 10 µM in assay [5] (setting [11]) was < 10%.
In the case of `CCCCC/C=C/C/C=C/CCCCCCCC(=O)O` [Linolelaidic acid], in assay [2], the “inhibition in the enzymatic assay” value is “as potent as their cis isomers”. For the same molecule, in assay [3] (setting [7]), the “p (significance of inhibition)” value is on record as “N.S”. Besides, in assay [3] (setting [8]), the “Pigmented macule Right (+T)” value came out at 46.6 ± 8.7 mm^2. The “Pigmented macule Left” value in assay [3] (21 days) was determined as 4.1 ± 0.7 mm^2. The “inhibition … of pigmented macule” value in assay [3] is “inactive”. In addition, the “inhibitory activity in [^3 H]4-MA binding assay” value in assay [4] is “much less inhibitory than their cis isomers”. Moreover, the inhibition at 40 µM in assay [5] (setting [9]) and in assay [5] (setting [12]) was < 10% in each case. The inhibition at 200 µM in assay [5] (setting [10]) amounted to 19 ± 5%; in assay [5] (setting [13]), 19%. In assay [5] (setting [11]), the inhibition at 10 µM is < 10%.
In the case of `CCCCCCCC/C=C\CCCCCCCCCCCCCC(=O)O` [Nervonic acid], the “p (significance of inhibition)” value in assay [3] (setting [7]) is reported as “N.S”. For the same molecule, the “Pigmented macule Right (+T)” value in assay [3] (setting [8]) was determined as 39.9 ± 5.4 mm^2. For the same molecule, in assay [3] (21 days), the “Pigmented macule Left” value is listed as 4.0 ± 1.5 mm^2. For the same molecule, the “inhibition … of pigmented macule” value in assay [3] was “no significant inhibition”. The “inhibitory activity in [^3 H]4-MA binding assay” value in assay [4] is “inactive”. Moreover, in assay [5], the half-maximal inhibitory concentration (IC50) is > 200 µM. Besides, the inhibition at 40 µM in assay [5] (setting [9]) and in assay [5] (setting [12]) was < 10% in each case. In addition, the inhibition at 200 µM in assay [5] (setting [10]) and in assay [5] (setting [13]) was < 10% in each case.
Consider `C=CCCCCCCCCC(=O)O` [Undecylenic acid], for which the “p (significance of inhibition)” value in assay [3] (setting [7]) is recorded as “N.S”. In addition, the “Pigmented macule Right (+T)” value in assay [3] (setting [8]) worked out at 41.7 ± 10.7 mm^2. Moreover, the “Pigmented macule Left” value in assay [3] (21 days) was 4.7 ± 1.2 mm^2. Besides, the “inhibition … of pigmented macule” value in assay [3] is on record as “no significant inhibition”. For the same molecule, the “inhibitory activity in [^3 H]4-MA binding assay” value in assay [4] is “inactive”. Moreover, in assay [4] (Table 2, 40 μM), the “% Inhibition of [^3 H]4-MA binding” value was “NA (less than 10% inhibition were considered not active (NA))”. In assay [5] (setting [14]), the inhibition at 10 µM was < 10%, the inhibition at 40 µM was < 10% and the inhibition at 200 µM worked out at 13 ± 2%.
Take `O=C(O)c1cc(O)c(O)c(O)c1` [gallic acid, reference compound]: the entries for the “inhibitory activity” value in assay [6] and in assay [1] were “not active” and “not as active as catechin gallate”, respectively.
Turning to `COC(=O)c1cc(O)c(O)c(O)c1` [methyl gallate], in assay [1], the “inhibitory activity” value is reported as “not as active as catechin gallate”.
Consider `CCCCCCCCOC(=O)c1cc(O)c(O)c(O)c1` [n-octyl gallate], for which the “inhibitory activity” value in assay [1] is “low inhibitory activity”.
As for `CCCOC(=O)c1cc(O)c(O)c(O)c1` [n-propyl gallate], the “inhibitory activity” value in assay [1] was “not as active as catechin gallate”.
On to `Oc1cccc(O)c1O` [pyrogallol], for which the “inhibitory activity” value in assay [1] is “not as active as catechin gallate”.
